These results are taken from ChEMBL document CHEMBL1144218, “Synthesis and biological activity of anticoccidial agents: 5,6-diarylimidazo[2,1-b][1,3]thiazoles” (Bioorg Med Chem Lett, 2008).

Assay [1] concerns Eimeria tenella. Description: Anticoccidial activity against Eimeria tenella infected in poultry bird assessed as reduction of […] burden at 50 ppm, po after 7 days. It is filed as functional. Also noted: scale not given: the % may be the effect or the level left.
Assay [2] can be described thus: Inhibition of Eimeria tenella PKG.
Assay [3] concerns Eimeria acervulina. Description: Anticoccidial activity against Eimeria acervulina infected in poultry bird assessed as reduction of […] burden at 50 ppm, po after 7 days. Format: functional. On the set-up: scale not given: the % may be the effect or the level left.
The subject of assay [4] is Eimeria mitis. Description: Anticoccidial activity against Eimeria mitis infected in poultry bird assessed as reduction of […] burden at 50 ppm, po after 7 days. On the set-up: scale not given: the % may be the effect or the level left. It is filed as functional.
For assay [5], the system named is Eimeria maxima. Description: Anticoccidial activity against Eimeria maxima infected in poultry bird assessed as reduction of […] burden at 50 ppm, po after 7 days. Format: functional. Also noted: scale not given: the % may be the effect or the level left.
In assay [6] the test system is Eimeria acervulina. In words: Anticoccidial activity against Eimeria acervulina infected in poultry bird assessed as reduction of […] burden at 25 ppm, po after 7 days. It is filed as functional. On the set-up: scale not given: the % may be the effect or the level left.
Assay [7] deals with Eimeria tenella. In words: Anticoccidial activity against Eimeria tenella infected in poultry bird assessed as reduction of […] burden at 25 ppm, po after 7 days. Format: functional. Also noted: scale not given: the % may be the effect or the level left.
The test system of assay [8] is Eimeria maxima. Description: Anticoccidial activity against Eimeria maxima infected in poultry bird assessed as reduction of […] burden at 25 ppm, po after 7 days. It is filed as functional. On the set-up: scale not given: the % may be the effect or the level left.
The subject of assay [9] is Eimeria mitis. In words: Anticoccidial activity against Eimeria mitis infected in poultry bird assessed as reduction of […] burden at 25 ppm, po after 7 days. On the set-up: scale not given: the % may be the effect or the level left. It is filed as functional.
For assay [10], the system named is Eimeria tenella. Description: Anticoccidial activity against Eimeria tenella infected in poultry bird assessed as reduction of […] burden at 12.5 ppm, po after 7 days. Format: functional. Also noted: scale not given: the % may be the effect or the level left.
In assay [11] the test system is Eimeria acervulina. In words: Anticoccidial activity against Eimeria acervulina infected in poultry bird assessed as reduction of […] burden at 12.5 ppm, po after 7 days. Format: functional. On the set-up: scale not given: the % may be the effect or the level left.
For assay [12], the system named is Eimeria maxima. Description: Anticoccidial activity against Eimeria maxima infected in poultry bird assessed as reduction of […] burden at 12.5 ppm, po after 7 days. It is filed as functional. Also noted: scale not given: the % may be the effect or the level left.
Assay [13] concerns Eimeria mitis. In words: Anticoccidial activity against Eimeria mitis infected in poultry bird assessed as reduction of […] burden at 12.5 ppm, po after 7 days. Format: functional. Also noted: scale not given: the % may be the effect or the level left.
In assay [14] the test system is Eimeria tenella. In words: Anticoccidial activity against Eimeria tenella infected in poultry bird assessed as reduction of […] burden at 6.25 ppm, po after 7 days. Format: functional. On the set-up: scale not given: the % may be the effect or the level left.
For assay [15], the system named is Eimeria acervulina. In words: Anticoccidial activity against Eimeria acervulina infected in poultry bird assessed as reduction of […] burden at 6.25 ppm, po after 7 days. It is filed as functional. On the set-up: scale not given: the % may be the effect or the level left.
The test system of assay [16] is Eimeria maxima. Description: Anticoccidial activity against Eimeria maxima infected in poultry bird assessed as reduction of […] burden at 6.25 ppm, po after 7 days. It is filed as functional. On the set-up: scale not given: the % may be the effect or the level left.
Assay [17] deals with Eimeria mitis. Description: Anticoccidial activity against Eimeria mitis infected in poultry bird assessed as reduction of […] burden at 6.25 ppm, po after 7 days. Also noted: scale not given: the % may be the effect or the level left. Format: functional.

`CN(C)CCc1cn2c(-c3ccncc3)c(-c3ccc(F)cc3)nc2s1`: the Activity is 50% with Eimeria tenella [1], 50% with Eimeria acervulina [3], 99% in the assay on Eimeria mitis [4] and under 50% in the assay with Eimeria maxima [5]. Moreover, in assay [2], it took 10.1 nM to reach half-maximal inhibition (IC50).
For `CN1CCN(C(=O)c2cn3c(-c4ccncc4)c(-c4ccc(F)cc4)nc3s2)CC1`, the IC50 (usually the concentration that gives 50% inhibition) in assay [2] stood at 100 nM.
As for `CN1CCN(Cc2cn3c(-c4ccnc(N)n4)c(-c4ccc(F)cc4)nc3s2)CC1`, the Activity with Eimeria tenella [1], in the assay on Eimeria acervulina [3], with Eimeria mitis [4], in the assay with Eimeria acervulina [6], in the assay on Eimeria maxima [5] and with Eimeria tenella [7] was 100% in each case. Further, the Activity was 100% with Eimeria maxima [8]; 100% in the assay with Eimeria mitis [9]; 100% in the assay with Eimeria tenella [10]; 100% in the assay on Eimeria acervulina [11]; 100% with Eimeria maxima [12]; under 50% with Eimeria mitis [13]. Also, the Activity was 100% in the assay with Eimeria tenella [14], 100% with Eimeria acervulina [15], 100% in the assay with Eimeria maxima [16] and under 50% in the assay on Eimeria mitis [17]. This compound also gave an IC50 in assay [2] of 0.08 nM.
Consider `CN(C)Cc1cn2c(-c3ccnc(N)n3)c(-c3ccc(F)cc3)nc2s1`, for which the Activity in the assay on Eimeria tenella [1] is given as 99%; in the assay with Eimeria acervulina [3] it was 100%; in the assay on Eimeria mitis [4], 50%; in the assay on Eimeria maxima [5], under 50%. The compound further returned an IC50 in assay [2] of 0.9 nM.
With `CN(C)Cc1cn2c(-c3ccncc3)c(-c3ccc(F)cc3)nc2s1`, the Activity with Eimeria tenella [1] is 80%; in the assay with Eimeria acervulina [3] it was 50%; with Eimeria mitis [4], under 50%; in the assay on Eimeria maxima [5] it was under 50%. Further, the half-maximal inhibitory concentration (IC50) in [2] amounted to 22 nM.
For the compound `CN1CCN(CCc2cn3c(-c4ccncc4)c(-c4ccc(F)cc4)nc3s2)CC1`, the Activity in the assay on Eimeria tenella [1] is 99%; in the assay on Eimeria acervulina [3], 80%; in the assay on Eimeria mitis [4] it was under 50%; in the assay with Eimeria maxima [5] it was 50%. Besides, in assay [2], the IC50 worked out at 2.5 nM.
Compound `Cc1c(CN2CCN(C)CC2)sc2nc(-c3ccc(F)cc3)c(-c3ccncc3)n12` returned an IC50 in assay [2] of over 100 nM.
In the case of `CN1CCN(Cc2cn3c(-c4ccncn4)c(-c4ccc(F)cc4)nc3s2)CC1`, the Activity with Eimeria tenella [1] is recorded as 100%; with Eimeria acervulina [3] it was 99%; in the assay on Eimeria mitis [4], 100%; in the assay on Eimeria maxima [5] it was 100%. Moreover, the concentration for half-maximal inhibition (IC50) in assay [2] came out at 1.04 nM.
As for `CN1CCN(Cc2cn3c(-c4ccncc4)c(-c4ccc(F)cc4)nc3s2)CC1`, the Activity in the assay on Eimeria tenella [1] is reported as 99%; with Eimeria acervulina [3] it was 100%; in the assay with Eimeria mitis [4], 80%; in the assay with Eimeria maxima [5], under 50%. This compound had an IC50 in [2] of 0.7 nM.
